Source: patent US7989467B2, “Use of indole-derived compounds for the preparation of a medicament that can be used to treat diseases related to the splicing process” (Centre National de la Recherche Scientifique (CNRS), priority 2003, dated 2011)
Each block holds one compound with its values, some of them ahead of it.

Legend:
M3S1 pre-messenger = assay: In vitro splicing of M3S1 pre-messenger RNA (dependent on ESE recognized by SR ASF/SF2 protein); type: biochemical, human; conditions: for M3S1 splicing inhibition: 10 μM, FIG. 2; for effect on M3S1 splicing: concentration not given
Protocol: The compounds presented in Tables 1 and 2 below were tested in a concentration range of 1 μM, 10 μM and 100 μM, and were selected initially on the basis of their capacity to inhibit, in vitro, the splicing of two types of model pre-mRNAs.
The second type of M3S1 pre-messenger is derived from the human […] gene (Labourier, E. et al. (1999), Antagonism between RSF1 and SR proteins for both splice-site recognition in vitro and Drosophila development. Genes Dev. 13, 740-753) and its splicing is strictly dependent on an auxiliary ESE sequence recognized specifically by the SR ASF/SF2 protein. Conditions for the transcription, splicing and analysis of this pre-messenger's products are identical to those used for the MINX pre-messenger.

[1] = system: M3S1 transcript splicing complexes; assay: In vitro splicing-complex formation on M3S1 transcript; type: biochemical, human; conditions: 50 μM; 30 minutes of incubation; FIG. 3
Description: The activity of the products has also been tested in splicing-complex formation reactions in vitro (FIG. 3) as described in Pilch B. et al. (Specific inhibition of serine- and arginine-rich splicing factors, phosphorylation, spliceosome assembly, and splicing by the antitumor drug NB-506. Cancer Res. 2001. 61, 6876-6884).
M3S1 transcript splicing reactions in the presence of various compounds according to the invention performed under the same conditions as those described for FIG. 1 are stopped after 30 minutes of incubation by the addition of heparin and glycerol at a final concentration of 1 mg/ml and 15%, respectively.

GFP-ESE transgene = assay: ESE-dependent splicing of GFP-ESE transgene mRNA in HeLa cells (RT-PCR); type: cell-based, human; conditions: 1 μM per FIG. 5 legend
Description: In order to test the efficiency of indole derivatives ex vivo, […] HeLa cell lines were established stably expressing a transgene corresponding to GFP whose sequence was interrupted by an ESE sequence flanked by two identical introns of the human […] gene described in Example 1 (see FIG. 5A).
To detect the messenger RNAs arising from the splicing of this gene, the RT-PCR technique was used with primers in the GFP sequence on each side of the ESE and the PCR products were analyzed on agarose gel.
In almost all the lines established, a single fragment of 250 base pairs (bp) was amplified by PCR (FIG. 5A, lanes 2 and 3) and it corresponds to an RNA messenger which included the ESE between the two GFP sequences.

[2] = system: M3S1-PDH pre-messenger RNA; assay: Splicing of M3S1-PDH pre-messenger RNA (pyruvate dehydrogenase E1α subunit, mutated intron 7); type: biochemical, human; conditions: for M3S1-PDH splicing: FIG. 4B
Description: In this substrate the sequences corresponding to exon 7-intron 7-exon 8 of the gene coding for the pyruvate dehydrogenase E1α subunit (PDH E1α) are inserted downstream from the M3S1 sequence (M3S1-PDH, see FIG. 4A). Intron 7 of this transcript contains a point mutation which creates a high affinity SR hSC35 protein binding site. This mutation, which causes the loss of PDH E1α expression in patients suffering from Leigh syndrome (an encephalopathy in children), leads to the appearance of a cryptic site 46 nucleotides downstream from the authentic 5′ splicing site (FIG. 4A). This substrate, likely to give rise to two products, one with and one without the 46 nucleotides of PDH intron 7, is ideal for determining the specificity of the compounds with respect to the various ESE sequences present within the same transcript.
Compound C7 is thus an excellent inhibitor of defective splicing that is dependent on hSC35 ESE, but not on authentic splicing. This compound can thus be envisaged for treating patients suffering from this encephalopathy.

SRp55 = biological target: T1, SRp55 (Homo sapiens, UniProt Q13247); assay: In vitro splicing results, Table 3: SRp55; type: biochemical; conditions: summary of Table 3
T1 sequence (Q13247 1-344): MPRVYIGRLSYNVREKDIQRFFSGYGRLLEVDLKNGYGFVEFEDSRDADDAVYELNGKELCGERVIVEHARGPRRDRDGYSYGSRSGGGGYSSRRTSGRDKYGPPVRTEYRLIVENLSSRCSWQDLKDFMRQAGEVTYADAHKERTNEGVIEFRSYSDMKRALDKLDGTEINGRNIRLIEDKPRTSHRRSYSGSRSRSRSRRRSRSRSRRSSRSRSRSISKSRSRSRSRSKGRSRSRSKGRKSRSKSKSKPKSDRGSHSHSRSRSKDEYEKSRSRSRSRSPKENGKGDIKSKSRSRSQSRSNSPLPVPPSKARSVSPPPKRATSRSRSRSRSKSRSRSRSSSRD

HIV = assay: Inhibition of HIV multiplication in PMA-stimulated U1 cells (RT-PCR of viral transcripts); type: cell-based; conditions: 2.5 μM; 24 h; U1 cells treated with 50 nM PMA; FIG. 6
Description: To this end, human […] cell line U1, which is chronically infected by HIV (Folks et al., 1988. Characterization of a promonocyte clone chronically infected with HIV and inducible by 13-phorbol-12-myristate acetate. J. Immunol., 140: 1117-1122) and which produces large quantities of virus after stimulation by PMA (phorbol myristate acetate), was used. As a result, this cell line constitutes an excellent model to mimic the transition between the latency phase and the viral production phase observed in patients infected by HIV.
The results of this experiment are presented in FIG. 6 in which U1 cells (5×10^5) were treated with 50 nM of PMA in the absence (FIG. 6, lane 1) or in the presence of 2.5 μM of compounds C47, C97, C58, C57, C92, C91, C90, C83, C73, C34, C51, C45, C13, C10, C44, C6, C7, C41, C50, C32, C2, C1, C29, C35 and C99 (FIG. 6, lanes 3-27, respectively). After 24 h of treatment, the virus's transcripts were amplified by RT-PCR using specific VIH, BSS and SJ4.7A primers (Jacquenet et al., 2001, A second exon splicing silencer within human immunodeficiency virus type 1 tat exon 2 represses splicing of Tat mRNA and binds protein hnRNP. H. J. Biol. Chem. 276: 40464-75) and a radioactive tracer (α-32P) CTP.

SMILES: COc1ccc2[nH]c3c(C)c4ccnc(NCCCN5CCN(CCCN)CC5)c4cc3c2c1 [C14]
M3S1 splicing inhibition (M3S1 pre-messenger): M3S1 splicing inhibition
inhibition of the formation of splicing complexes A and B on M3S1 [1]: inhibition of the formation of splicing complexes A and B
splicing profile of the GFP-ESE transgene (RT-PCR fragment without ESE) (GFP-ESE transgene): revealed a fragment of 194 bp

SMILES: Cc1c2ccnc(Cl)c2cc2c3cn(C)ccc-3nc12 [C3, 10-chloro-2,6-dimethyl-2H-pyrido[3′,4′:4,5]pyrrolo[2,3-g]isoquinoline]
M3S1 splicing inhibition (M3S1 pre-messenger): M3S1 splicing inhibition
inhibition of the formation of splicing complexes A and B on M3S1 [1]: inhibition of the formation of splicing complexes A and B

RNA species from normal PDH splicing ([2]; FIG. 4B lane 4): has no effect
formation of RNA species arising from PDH splicing that include the 46 nucleotides of intron 7 (defective splicing dependent on hSC35 ESE) ([2]; FIG. 4B lane 4): blocks the formation
SMILES: COc1ccc2[nH]c3c(C)c4ccncc4c(NCCCN(C)C)c3c2c1 [C7, N′(9-methoxy-5-methyl-6H-pyrido[4,3-b]carbazol-11-yl)-N,N-dimethyl-propane-1,3-diamine]
effect on M3S1 splicing (M3S1 pre-messenger): do not modify M3S1 splicing

SMILES: CNCCCNc1ncc(C)c2[nH]c3ccc4cc(OC)ccc4c3c12 [C57, N-(3-methoxy-8-methyl-7H-benzo[e]pyrido[4,3-b]indol-11-yl)-N′-methyl-propane-1,3-diamine]
inhibit the activity of the SRp55 protein specifically (SRp55): inhibit the activity of the SRp55 protein specifically
inhibition of HIV multiplication (amplification of viral transcripts) (HIV): excellent inhibitors of HIV multiplication

SMILES: CCN(CC)CCNc1nccc2c(C)c3c(cc12)c1cc(OC)ccc1n3C [C50, N,N-diethyl-N′-(9-methoxy-5,6-dimethyl-6H-pyrido[4,3-b]carbazol-1-yl)-ethane-1,2-diamine]
inhibit the activity of the SRp55 protein specifically (SRp55): inhibit the activity of the SRp55 protein specifically
inhibition of HIV multiplication (amplification of viral transcripts) (HIV): excellent inhibitors of HIV multiplication

SMILES: CCN(CC)CCC(C)Nc1nccc2c(C)c3c(cc12)c1cnccc1n3C (stereo not shown) [C28, N-3-(5,6-dimethyl-5H-pyrido[3′,4′:4,5]pyrrolo[2,3-g]isoquinolin-10-yl)-N,N-1-diethyl-butane-1,3-diamine]
splicing profile of the GFP-ESE transgene (RT-PCR fragment without ESE) (GFP-ESE transgene): revealed a fragment of 194 bp

M3S1-PDH splicing [2]: has no effect
SMILES: CC(=O)Oc1nccc2c(C)c3[nH]c4ccc(O)cc4c3cc12 [C4, 9-hydroxy-5-methyl-6H-pyrido[4,3-b]carbazol-1-yl acetic acid ester]
effect on M3S1 splicing (M3S1 pre-messenger): inactive on M3S1

M3S1-PDH splicing [2]: Inhibition of M3S1-PDH
SMILES: CCN(CC)CCCNc1nccc2c(C)c3[nH]c4ccc(OC)cc4c3cc12 [C8, N,N-diethyl-N′-(9-methoxy-5-methyl-6H-pyrido[4,3-b]carbazol-1-yl)-propane-1,3-diamine]
